One experiment has as its target wild type human IL-2 (Homo sapiens, UniProt P60568). The experiment can be described thus: SPR binding of compounds to immobilized wild type IL-2 (Examples 1-2). The conditions noted are these: for IL-2 wt Kd: immobilized wild type human IL-2.
Another experiment concerns the target T1, K43C-IL-2-SS -2 (Homo sapiens, UniProt P60568, K63C).
T1 construct: made in house; host or cells: E. coli
Briefly: SPR binding of compounds to immobilized IL-2-SS-ligand complex (Examples 1-2). The conditions noted are these: immobilized substrate-SS-ligand complex K43C-IL-2-SS -2. Here is the method: (§1) A CM5 sensor chip (Biacore-BR-1000-14) is docked in a Biacore 2000 SPR device, and the chip is then normalized using a standard Biacore protocol with 70% glycerol. The chip is next equilibrated in PBS for approximately 1 hr at a 20 μL/min flow rate. The dextran surface of the chip is activated through an NHS/EDC coupling. This activation is done using an amine coupling kit (Biacore—BR-100-50) containing N-hydroxysuccinimide (NHS 11.5 mg/mL) and N-ethyl-N′-(3-dimethylaminopropyl) carbodiimide hydrochloride (EDC 75 mg/mL). The two reagents are first mixed in a 1:1 ratio and then 35 μL of the mixture are injected at 5 mL/min. The chip is activated one flow cell at a time, and that flow cell is subsequently labeled with protein.
(§2) IL-2 cysteine mutants are expressed in E. coli cells and purified using standard procedures. The cysteine mutants are treated with 10 mM βME overnight to reduce the surface cysteine. The βME is removed and the protein-thiolate is placed in 100 mM HEPES buffer pH 7.4 (Nap-5 column, Pierce). […]
(§3) The protein-SS—ligand complex is next concentrated to 100 μM using a Millipore-UFV5BCCOO 5K NMWL membrane, 0.5 mL centrifugal filter and tube. […] After injection the change in RUs is measured by marking the RUs at t=0 and t=final and subtracting. […]
(§4) The dilution series are analyzed by BIAevaluation software version 3.0. […]

The next experiment has as its target T2, immobilized IL-2 (Homo sapiens, UniProt P60568).
T2 construct: made in house; host or cells: E. coli
Briefly: Double ligand SPR on immobilized interleukin-2 (Examples 9-11). The conditions noted are these: for Kd: Example 11, immobilized interleukin-2, read-out: apparent Kd in SPR experiments. The class given is binding. Here is the method: as §1, with “SPR device” for “SPR device,”, “and” for “and the chip is then”, “This coupling” for “This activation”, “mg/mL). First, the” for “mg/mL). The”, “are” for “are first”, “5 μL/min.” for “5 mL/min.”
IL-2 is expressed in E. coli cells and purified using standard procedures. Protein is then concentrated to 100 μM and the buffer is exchanged to 100 mM MES pH 5.75 (Nap-5 column, Pierce). A sensorgram is then run over the activated flow cell at 2,L/min of PBS. The IL-2 solution is then injected at 2 μL/min for 10 min. After injection the change in RUs is measured by marking the RUs at t=0 and t=final and subtracting. This gives the total RU change, which is related to the total mass of protein successfully coupled to the CM5 surface. The total mass will later be used to determine stoichiometry of binding. This procedure is then repeated with another arbitrary protein to create a measure for nonspecific binding. The arbitrary protein is immobilized on an adjacent cell. […] The sensorgram is then altered to flow across all four cells on the CM5 chip at 5 μL/min PBS. A solution of 1 M ethanolamine hydrochloride-NaOH pH 8.5 (Amine coupling kit, Biacore-BR-100-50) is injected at 5 μL/min for 7 min. Proteins are immobilized at densities of 100-160 fmol/mm^2. The chip is equilibrated overnight in PBS+0.05% azide+2% DMSO at 20 μL/min.
In this experiment, variable concentrations of a compound are tested at a constant concentration of another compound. The compound held constant is 2c, for example (structure shown in Example 2). To determine appropriate constant concentrations for 2c, a compound titration is first performed. Dilution series of the compounds are typically performed to produce seven solutions having final compound concentrations of 30 mM, 10 mM, 3.3 mM, 1.1 mM, 0.37 mM, 0.12 mM, and 0.041 mM; an eighth solution is a DMSO-only baseline. The compounds are then diluted into PBS+0.05% azide to final concentrations of 300 μM, 100 μM, 33 μM, 11 μM, 3.7 μM, 1.2 μM, 0.41 μM. The compound solutions are injected from lowest concentration to highest at 40 μL/min for 1 min. The SPR software method includes a 1 min wash before injection, the injection and then a 3 min wash after the injection.
These dilution series are analyzed by BIAevaluation software version 3.0. Sensorgrams are plotted for compound binding to the IL-2 labeled cell of the chip. The sensorgrams are modified by subtracting the sensorgrams for the appropriate compound dilutions over cell 1 (a blank cell). This subtraction step removes any RU changes that might occur due to non-specific interactions between the compound and the chip itself or refractive changes in the buffer. Finally, the eight sensorgrams produced from the compound dilution series are zeroed at the average of their starting RUs. Then the sensorgram produced by injecting DMSO only is subtracted to reveal the final sensorgrams used to determine relative binding.
To determine KdSPR for the compound, the compound concentration is plotted on the X-axis, while the fraction bound at the plateau of the injection is plotted on the Y-axis. The curve is then analyzed via non-linear regression analysis (Kaleidagraph, Synergy Software). […] The concentration chosen is where the RUs remain constant at the top of the binding curve and thus the IL-2:2c ratio is 1. For 2c, this concentration is 100 μM.
A second compound is then run, this time in both the presence and absence of 2c. […]

For a further experiment, the target named is T3, Y31C-IL-2-SS -3 (Homo sapiens, UniProt P60568, Y51C).
T3 construct: made in house; host or cells: E. coli
T3 sequence (P60568 21-153 Y51C): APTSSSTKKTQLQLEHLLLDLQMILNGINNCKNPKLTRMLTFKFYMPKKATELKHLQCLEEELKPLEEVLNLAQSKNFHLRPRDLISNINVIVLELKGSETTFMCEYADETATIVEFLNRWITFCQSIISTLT
Briefly: SPR binding of compound to immobilized IL-2-SS-ligand complex (Examples 1-2). The settings on record: immobilized substrate-SS-ligand complex Y31C-IL-2-SS -3. Here is the method: as §1, §2, §3, §4

In a further experiment the target is T4, Y31C-IL-2-SS -4 (Homo sapiens, UniProt P60568, Y51C).
T4 construct: made in house; host or cells: E. coli
T4 sequence (P60568 21-153 Y51C): as above
The experiment is described as above. The conditions noted are these: immobilized substrate-SS-ligand complex Y31C-IL-2-SS -4. Here is the method: as §1, §2, §3, §4

Molecules are shown by their SMILES.

Sequence of wild type human IL-2 (P60568 21-153): as the sequence (P60568 21-153 Y51C) above, with C31Y counted along it
T2 sequence (P60568 21-153): as the sequence (P60568 21-153 Y51C) above, with C31Y counted along it
T1 sequence (P60568 21-153 K63C): as the sequence (P60568 21-153 Y51C) above, with C31Y, K43C counted along it

Regarding `COCC(=O)N1CCc2c([nH]c3ccccc23)C1` [Compound 3c], the “IL-2 wt Kd” value on wild type human IL-2 is reported as “Inactive”. Further, the Kd was 250 µM at K43C-IL-2-SS -2 and above 500 µM on immobilized IL-2.

In the case of `COCN(C)C(=O)c1ccc(C(C)C)cc1` [Compound 4c], the “IL-2 wt Kd” value at wild type human IL-2 is on record as “Inactive”. At K43C-IL-2-SS -2, this molecule displayed a Kd of 210 µM. Moreover, the “Kd,SPR IL-2” value at immobilized IL-2 (immobilized IL-2, no other compound) is “Inactive”.

As for `COC(=O)[C@H](Cc1ccc(C=Cc2ccccc2)cc1)NC(=O)C[C@H]1CCCN(C(=N)N)C1` [Compound 2c], the Kd on wild type human IL-2 (immobilized wild type human IL-2, read-out: IL-2 wt Kd) was 33 µM; at Y31C-IL-2-SS -3, 8 µM; on Y31C-IL-2-SS -4, 30 µM; on immobilized IL-2 it was 10 µM.

Source of the values: patent US20030186464A1, “Surface plasmon resonance methods” (priority 2002, published 2003).
